Patent US6075033A, “Anthranilic acid diamides derivatives, their preparation and pharmaceutical use as anti-gastrin agents” (Rotta Research Laboratorium S.p.A, priority 1996, dated 2000)
pIC50: −log10 of the molar value. Each block holds one compound with its values, some of them ahead of it.

Assays:
[1] = molecular target: T1, type B (CCK-B) gastrin or cholecystokinin receptors (Oryctolagus cuniculus, UniProt P46627); test: Inhibition of the increase in cytosol calcium induced by gastrin in rabbit gastric mucous-membrane cells; type: cell-based; conditions: 5×10-8 gastrin
T1 construct: rabbit gastric mucous-membrane cells were prepared by conventional techniques; endogenous in cells; host or cells: dispersed rabbit gastric mucous-membrane cells (collagenase and pronase)
T1 sequence (P46627 1-452): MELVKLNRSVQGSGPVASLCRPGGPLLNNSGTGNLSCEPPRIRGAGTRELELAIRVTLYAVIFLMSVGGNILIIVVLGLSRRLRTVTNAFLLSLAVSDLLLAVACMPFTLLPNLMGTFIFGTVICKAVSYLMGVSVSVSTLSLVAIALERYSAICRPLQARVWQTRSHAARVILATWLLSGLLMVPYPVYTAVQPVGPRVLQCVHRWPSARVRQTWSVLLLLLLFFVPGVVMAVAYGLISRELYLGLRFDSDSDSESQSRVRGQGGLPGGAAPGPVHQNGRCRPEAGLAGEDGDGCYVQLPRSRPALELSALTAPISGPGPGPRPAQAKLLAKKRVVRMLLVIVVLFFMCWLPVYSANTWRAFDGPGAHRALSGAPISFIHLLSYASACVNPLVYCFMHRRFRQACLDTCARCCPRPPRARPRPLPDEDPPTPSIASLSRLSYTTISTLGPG
Text: The parietal cells of the gastric mucous membrane are responsible for the secretion of HCl. They have specific membrane receptors which can be activated by gastrin and which have been defined as type B (CCK-B) gastrin or cholecystokinin receptors.
Since it has been observed that the activation of CCK-B receptors by gastrin leads to an increase in the level of cytosol calcium ions, a technique of measurement of the increase in intracellular calcium induced by gastrin in the presence and in the absence of the compounds of the invention was used as an indication of the anti-gastrin activity of the compounds.
Suspensions (0.8×10^6 /ml) of rabbit gastric mucous-membrane cells were prepared by conventional techniques with the use of collagenase and pronase as digestive enzymes; the basal [Ca^2+ ]i values, that is, those reached […] stimulation of the cellular system, were estimated in accordance with Grynkiewicz et al [J. Biol. Chem. 260 (1985), 3440]. In the control samples, the cells were stimulated with […], whereas in the samples in which the effect of the compounds of the invention was evaluated, the cells were incubated with these compounds before stimulation with gastrin. The results are expressed as percentage increments of [Ca^2+ ]i with reference to the control value. The anti-gastrin activity of the compounds was expressed as the IC50 value, that is, the concentration (in micromoles/liter) at which the response to the stimulus induced by gastrin was reduced by 50%.

central CCK-B receptor [2] = molecular target: T2, central CCK-B receptor (Cavia porcellus, UniProt H0VZC5); test: Inhibition of the binding of [3H]-[pBC264]CCK-7 to guinea-pig cortex membranes; conditions: for pIC50: guinea-pig cortex membranes, 0.2 nM radioligand, read-out: IC50, displacement of [3H][pBC264]CCK-7 from the receptor; for times less active than the corresponding (R) derivative: on average, CCK-B binding
T2 construct: Cerebral cortexes of male albino guinea pigs were therefore used; from tissue; host or cells: cerebral cortex membranes of male albino guinea pigs
T2 sequence (H0VZC5 1-426): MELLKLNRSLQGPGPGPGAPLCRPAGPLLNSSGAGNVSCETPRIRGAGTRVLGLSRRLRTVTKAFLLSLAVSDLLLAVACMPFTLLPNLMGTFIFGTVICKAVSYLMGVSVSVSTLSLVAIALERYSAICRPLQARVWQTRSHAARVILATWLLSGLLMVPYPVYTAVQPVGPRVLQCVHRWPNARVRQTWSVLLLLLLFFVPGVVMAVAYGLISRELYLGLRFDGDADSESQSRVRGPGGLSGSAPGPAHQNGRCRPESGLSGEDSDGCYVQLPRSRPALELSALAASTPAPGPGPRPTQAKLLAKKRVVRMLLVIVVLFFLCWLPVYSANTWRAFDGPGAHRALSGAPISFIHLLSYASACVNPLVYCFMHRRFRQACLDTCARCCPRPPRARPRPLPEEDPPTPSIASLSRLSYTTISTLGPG
Text: (§1) [3-H][pBC264]CCK-7 was used to evaluate the ability of the compounds of the invention to interact with the central CCK-B receptor. This ligand has been show: to be selective for the CCK-B receptors since it has an affinity for the cortex (CCK-B) receptors 3 logarithmic orders of magnitude greater than for those of the pancreas (CCK-A) in the guinea pig (C. Durieux et al. Eur. J. Pharmacol. 168 (1989 page 269].
(§2) Cerebral cortexes of male albino guinea pigs were therefore used with the method given above, to obtain a membrane content corresponding to about 300 mcg of proteins/ml incubated with a final concentration of 0.2 nM of radioligand.
(§3) The results obtained for some of the compounds of the invention are shown in Table 2 in which the IC50, that is, the concentration (in micromoles/liter) of the antagonist which can displace 50% of the [3-H](pBC264]CCK-7 from the receptor, is given.

rat = test: Anxiolytic activity, elevated plus-maze in the rat; type: in vivo
Text: An important role has in fact recently been postulated for the central CCK-B receptor in anxiety. […] In this experimental model, a compound having anxiolytic activity produces a % increase in the time spent in the open limbs and a % increase in the number of entries to the open limbs.
The results obtained are shown in Table 4 below, in which the activities obtained with various doses of compound 1 administered by an intraperitoneal route (IP) in comparison with a group of animals treated with physiological solution by the same route.

central CCK-B receptor [3] = test: Inhibition of the binding of [3H]-[pBC264]CCK-7 to guinea-pig cortex membranes; conditions: CCK-B binding (Table 2) compared with CCK-A gall bladder activity
Text: as §1, §2, §3

IC50, inhibition of gastrin-induced increase in cytosol calcium [1]: 68.8 nM
pIC50 (central CCK-B receptor [2]): 7.26
times less active than the corresponding (R) derivative (central CCK-B receptor [2]): ~10 times
Structure (SMILES): Cc1cc(C)c(NC(=O)C[C@@H](CC(=O)O)c2cccc3ccccc23)c(C(=O)N2CCC3(CCCC3)CC2)c1 [Compound 4]

IC50, inhibition of gastrin-induced increase in cytosol calcium [1]: 4.3 nM
pIC50 (central CCK-B receptor [2]): 8.29
affinity for the gastrin receptor (CCK-B) relative to the cholecystokinin receptor (CCK-A) (central CCK-B receptor [3]): at least 1000 times
Structure (SMILES): Cc1cc(C)c(NC(=O)C[C@H](CC(=O)O)c2cccc3ccccc23)c(C(=O)N2CCC3(CCCC3)CC2)c1 [Compound 1]
% effect Vs controls (entries open limbs/total entries) (rat; 0.03 mg/kg I.P.): 32.6%
% effect Vs controls (time open limbs/total time) (rat; 0.03 mg/kg I.P.): 26.4%
Entries open limbs/total entries (%) (rat; 0.03 mg/kg I.P.): 42.2%
Time open limbs/total time (%) (rat; 0.03 mg/kg I.P.): 27.5%
% effect Vs controls (entries open limbs/total entries) (rat; 0.3 mg/kg I.P.): 31.5%
% effect Vs controls (time open limbs/total time) (rat; 0.3 mg/kg I.P.): 50.9%
% of time spent in the open limbs vs control group (in words) (rat; 0.3 mg/kg I.P.): this increase is significant
Entries open limbs/total entries (%) (rat; 0.3 mg/kg I.P.): 41.8%
Time open limbs/total time (%) (rat; 0.3 mg/kg I.P., (*) Duncan test p < 0.05 vs control group): 32.8%
% effect Vs controls (entries open limbs/total entries) (rat; 3.0 mg/kg I.P.): 26.3%
% effect Vs controls (time open limbs/total time) (rat; 3.0 mg/kg I.P.): 38.5%
Entries open limbs/total entries (%) (rat; 3.0 mg/kg I.P.): 40.2%
Time open limbs/total time (%) (rat; 3.0 mg/kg I.P.): 30.1%
% of entries to the open limbs over total entries vs controls (in words) (rat; dose range 0.03-3 mg/kg I.P.): increases the % of entries to the open limbs
anxiolytic activity (in words) (rat; plus maze, I.P.): shows anxiolytic activity

IC50, inhibition of gastrin-induced increase in cytosol calcium [1]: 3.5 nM
pIC50 (central CCK-B receptor [2]): 8.60
Structure (SMILES): Cc1cc(Cl)c(NC(=O)C[C@H](CC(=O)O)c2cccc3ccccc23)c(C(=O)N2CCC3(CCCC3)CC2)c1 [Compound 2]

IC50, inhibition of gastrin-induced increase in cytosol calcium [1]: 82 nM
pIC50 (central CCK-B receptor [2]): 7.64
times less active than the corresponding (R) derivative (central CCK-B receptor [2]): ~10 times
Structure (SMILES): Cc1cc(Cl)c(NC(=O)C[C@@H](CC(=O)O)c2cccc3ccccc23)c(C(=O)N2CCC3(CCCC3)CC2)c1 [Compound 5]
